Assay results published in PMC8920097, “Prediction of hERG inhibition of drug discovery compounds using biomimetic HPLC measurements” (ADMET & DMPK, 2021).
Read-outs that look alike come from different tables or passages of the source.

Columns and labels:
[1] = molecular target: human serum albumin (HSA) (Homo sapiens, UniProt P02768); assay: Protein binding on Chiralpak HSA HPLC column; details: pH 7.4, Chiralpak HSA
Method: (§1) The measurement of the biomimetic properties of the available drugs was conducted in our laboratories. Generic gradient HPLC methods were used to determine the chromatographic hydrophobicity Index (CHI) using mobile phases at three different pH values. The protein binding of the compounds was measured using immobilised human serum albumin (HSA), and alpha-1-acid-glycoprotein (AGP) stationary phases. The phospholipid-binding was measured using the immobilised artificial membrane (IAM) stationary phase. The aim was to establish relationships between the cardiotoxicity potential and the biomimetic binding properties of the drugs and to evaluate their predictive performance.

[2] = Charge character of the drugs at pH 7.4; assay type: physicochemical
[3] = CHI lipophilicity by gradient reversed-phase HPLC (Gemini NX-C-18); details: for chromatographic logD: Gemini NX-C-18 reversed-phase HPLC column, pH 7.4; for chromatographic logP: reversed-phase HPLC, Gemini NX-C-18 column (50 x 3 mm, 5 µm)
Method: The Chromatographic Hydrophobicity Index (CHI) was measured using the compounds’ calibrated gradient retention times obtained from an Agilent 1100 HPLC fitted with a Gemini NX-C-18 column (Phenomenex Ltd Macclesfield, UK) with dimensions of 50 x 3 mm and 5 μm particle size. […] The mobile phase B was 100 % acetonitrile. […] An acetonitrile linear gradient was used from 0 to 100 %. […] The retention time values for a standard set of compounds listed in Table 1 were used to convert the drug retention times to CHI values.

[4] = tested on: hERG channel; details: cited from earlier work
[5] = Phospholipid binding at pH 7.4 on IAM PC.DD2 HPLC column; assay type: physicochemical; set-up: key to CHI IAM: approximates acetonitrile concentration (%) in mobile phase at elution; details: for log k IAM: pH 7.4, derived from CHI IAM by equation 1; for CHI IAM: pH 7.4
Method: The phospholipid-binding was measured using an IAM PC.DD2 column with dimensions of 100 x 4.6 mm (Regis Technologies Inc., Morton Grove, IL, USA). The gradient retention times were measured using a 50 mM ammonium acetate mobile phase with the pH adjusted to 7.4. The mobile phase flow rate was 1.5 mL/min. […] The cycle time was 6 min, plus an additional 1 min equilibration time was applied while the injector prepared for the next injection. The gradient retention times were calibrated with the acetophenone homologues for which the CHI IAM values have been established using isocratic measurements. […] The CHI Index on the IAM column (CHI IAM) approximates the acetonitrile concentration in the mobile phase when the compound elutes. […] The CHI IAM values have been converted to log k IAM values derived from the CHI IAM values using equation 1. It represents the equivalent value derived from several isocratic measurements with extrapolated log retention factors to 100 % aqueous mobile phase. The log k IAM values can be converted to log K (IAM) values and show linear relationships with the octanol/water partition coefficients.

[6] = tested on: alpha-1-acid-glycoprotein (AGP); assay: Protein binding on Chiralpak AGP HPLC column; details: pH 7.4, Chiralpak AGP
Method: as §1

[7] = literature values, mean where several reported, molar

Sequence of human serum albumin (HSA) (P02768 25-609): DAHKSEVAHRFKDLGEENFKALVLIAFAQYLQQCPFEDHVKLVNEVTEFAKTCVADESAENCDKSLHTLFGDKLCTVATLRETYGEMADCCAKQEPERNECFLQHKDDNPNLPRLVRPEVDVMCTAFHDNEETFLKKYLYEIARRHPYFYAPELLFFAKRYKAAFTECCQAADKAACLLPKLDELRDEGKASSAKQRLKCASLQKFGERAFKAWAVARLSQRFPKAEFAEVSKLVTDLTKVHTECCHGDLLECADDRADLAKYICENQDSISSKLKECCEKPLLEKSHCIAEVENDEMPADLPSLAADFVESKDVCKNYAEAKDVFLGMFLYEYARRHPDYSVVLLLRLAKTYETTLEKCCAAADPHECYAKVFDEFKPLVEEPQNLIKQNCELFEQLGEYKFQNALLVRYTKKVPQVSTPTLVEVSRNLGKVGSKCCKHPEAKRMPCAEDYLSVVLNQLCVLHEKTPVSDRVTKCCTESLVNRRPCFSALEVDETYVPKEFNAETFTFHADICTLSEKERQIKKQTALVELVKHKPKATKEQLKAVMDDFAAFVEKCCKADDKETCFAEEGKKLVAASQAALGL

| Compound | log k HSA [1] | Charge [2] | chromatographic logD [3] | chromatographic logP [3] | hERG pIC50 [4] | log k IAM [5] | log k AGP [6] | hERG pIC50 [4, 7] | CHI IAM [5] |
| --- | --- | --- | --- | --- | --- | --- | --- | --- | --- |
| COc1ccc(CCN2CCC(Nc3nc4ccccc4n3Cc3ccc(F)cc3)CC2)cc1 [Astemizole] | 1.17 | Basic | 2.68 | 3.52 | 6.69 | 2.77 | 1.12 | – | – |
| CC(C)COCC(CN(Cc1ccccc1)c1ccccc1)N1CCCC1 (stereo not drawn) [Bepridil] | 1.27 | Basic | 4.4 | 6.62 | – | 3.08 | 1.14 | 6.42 | – |
| CN(C)CCC(c1ccc(Br)cc1)c1ccccn1 (stereo not drawn) [Brompheniramine] | 0.68 | Basic | 1.74 | 4.27 | – | 2.8 | 0.68 | 5.61 | – |
| CCCCN1CCCCC1C(=O)Nc1c(C)cccc1C (stereo not drawn) [Bupivacaine] | -0.10 | Weak Base | 3.06 | 3.97 | – | 2.34 | 1.35 | 5.51 | 41.66 |
| COc1cc(N)c(Cl)cc1C(=O)NC1CCN(CCCOc2ccc(F)cc2)CC1OC (stereo not drawn) [Cisapride] | 1.11 | Basic | 2.65 | 3.17 | 6.88 | 2.35 | 0.84 | – | – |
| CC[C@H]1OC(=O)[C@H](C)[C@@H](O[C@H]2C[C@@](C)(OC)[C@@H](O)[C@H](C)O2)[C@H](C)[C@@H](O[C@@H]2O[C@H](C)C[C@H](N(C)C)[C@H]2O)[C@](C)(OC)C[C@@H](C)C(=O)[C@H](C)[C@@H](O)[C@]1(C)O [Clarithromycin] | -0.24 | Basic | 1.9 | 4.55 | 4.32 | 2.70 | 0.20 | – | 49.68 |
| COc1cc2nc(N3CCN(C(=O)C4COc5ccccc5O4)CC3)nc(N)c2cc1OC (stereo not drawn) [Doxazosin] | 1.04 | Weak Base | 2.09 | 2.24 | – | 2.16 | 0.72 | 6.03 | – |
| O=C(NCC1CCCCN1)c1cc(OCC(F)(F)F)ccc1OCC(F)(F)F (stereo not drawn) [Flecainide] | -0.05 | Basic | 1.68 | 3.01 | – | 2.33 | 0.16 | 5.25 | – |
| CCCCC1=NC2(CCCC2)C(=O)N1Cc1ccc(-c2ccccc2-c2nnn[nH]2)cc1 [Irbesartan] | 1.30 | Zwitterionic | 1.39 | 2 | – | 1.62 | 1.10 | 4.71 | 26.14 |
| COC(=O)C1=C(C)NC(C)=C(C(=O)OC(C)C)C1c1cccc2nonc12 (stereo not drawn) [Isradipine] | 1.19 | Neutral | 3.25 | 3.29 | – | 2.21 | 1.32 | 5.71 | – |
| Nc1nnc(-c2cccc(Cl)c2Cl)c(N)n1 [Lamotrigine] | 0.16 | Weak Base | 0.86 | 0.81 | 3.55 | 1.49 | -0.33 | – | 23.25 |
| CCCCN1CCCC[C@H]1C(=O)Nc1c(C)cccc1C [Levobupivacaine] | 0.13 | Weak Base | 3.25 | 4.2 | – | 2.34 | 1.25 | 5.48 | 41.83 |
| COCCc1ccc(OCC(O)CNC(C)C)cc1 (stereo not drawn) [Metoprolol] | -0.72 | Basic | 0.77 | – | – | 2.05 | -0.27 | 3.84 | 35.38 |
| Cc1nccn1CC1CCc2c(c3ccccc3n2C)C1=O (stereo not drawn) [Ondansetron] | 0.54 | Weak Base | 1.33 | 1.66 | – | 2.22 | 1.30 | 5.73 | 39.01 |
| CCCN1C[C@H](CSC)C[C@@H]2c3cccc4[nH]cc(c34)C[C@H]21 [Pergolide] | 0.73 | Basic | 2.47 | 3.81 | – | 2.85 | 1.04 | 6.52 | – |
| O=C1NC(=O)C(c2ccccc2)(c2ccccc2)N1 [Phenytoin] | 0.69 | Weak Acid | 1.73 | 1.85 | 3.71 | 1.78 | 0.15 | – | 29.66 |
| O=c1[nH]c2ccccc2n1C1CCN(CCCC(c2ccc(F)cc2)c2ccc(F)cc2)CC1 [Pimozide] | 1.41 | Weak Base | 3.03 | 3.89 | 6.43 | 2.83 | 1.47 | – | – |
| CCCOC(C(=O)OC1CCN(C)CC1)(c1ccccc1)c1ccccc1 [Propiverine] | 1.01 | Basic | 3.84 | 5.05 | – | 3.12 | 0.94 | 5.22 | – |
| COc1ccc(CN(CCN(C)C)c2ccccn2)cc1 [Pyrilamine] | 0.44 | Basic | 1.72 | 3.32 | 5.18 | 2.56 | 0.49 | – | 46.62 |
